The values below come from patent publication US20220324835A1 (Nurix Therapeutics, Inc., priority 2018, published 2022).

Assay [1] concerns the target T1, Cbl-b (Homo sapiens, UniProt Q13191). The assay can be described thus: Cbl-b activity assay (Cbl-b inhibition assay), TR-FRET of Cbl-b interaction with UbcH5B-Ub. The assay is classed as biochemical. In short, it runs like this:
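TR-FRET readout of Cbl-b binding to Bodipy-fluorescein N-terminally labeled Ub conjugated to UbcH5B C85K, measured with compound present. After compound incubation, 60 nM Src kinase with 1 mM ATP and 5 mM MgCl2 (final) was added for 1.5 h, then a further 1 h incubation; asterisked values used 50 mM NaCl buffer and 30 nM Src.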
For orientation: TR-FRET usually uses a lanthanide donor and a delayed reading to cut background.

Assay [2] concerns T-cell. The assay can be described thus: CD25 cell surface staining on T-cells co-stimulated with anti-CD3 and anti-CD28 antibody (Biological Example 2). The assay is classed as cell-based, human. The following applies: for CD25 staining, Anti-CD3/Anti-CD28 stimulation, fold change over baseline: baseline = anti-CD3/anti-CD28 stimulated cells without inhibitor; for fold induction at 0.3 µM / fold induction at 1 µM / fold induction at 4 µM: Homo sapiens, T-cell, read-out: CD25 staining Anti-CD3/Anti-CD28 stimulation; for fold induction at 0.3 µM: 0.3 μM Cbl-b inhibitor; for fold induction at 1 µM: 1 μM Cbl-b inhibitor; for fold induction at 4 µM: 4 μM Cbl-b inhibitor. A digest of the protocol: (§1)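 No assay protocol given; T-cells stimulated with anti-CD3 alone or anti-CD3 plus anti-CD28, with or without Cbl-b inhibitor. Activation read as IL-2 secretion or CD25 surface staining, expressed as fold over baseline from uninhibited cells […].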

For assay [3], the system named is T-cell. The assay can be described thus: IL-2 secretion from T-cells stimulated with anti-CD3 antibody alone (Biological Example 2). It counts as cell-based, human. The following applies: for fold induction at 1 µM / fold induction at 8 µM: T-cell, read-out: IL-2 secretion Anti-CD3 stimulation; for fold induction at 1 µM: 1 μM Cbl-b inhibitor; for fold induction at 8 µM: 8 μM Cbl-b inhibitor.

Assay [4] relates to T-cell. Description: CD25 cell surface staining on T-cells stimulated with anti-CD3 antibody alone (Biological Example 2). It counts as cell-based, human. The following applies: for CD25 staining, Anti-CD3 stimulation, fold change over baseline: baseline = anti-CD3/anti-CD28 stimulated cells without inhibitor; for fold induction at 1 µM / fold induction at 8 µM: T-cell, read-out: CD25 staining Anti-CD3 stimulation; for fold induction at 1 µM: 1 μM Cbl-b inhibitor; for fold induction at 8 µM: 8 μM Cbl-b inhibitor.

For assay [5], the target named is T1, Cbl-b. Description: Cbl-b inhibition assay (Cbl-b activity assay, FRET, Biological Example 1; 100 mM NaCl, 60 nM Src kinase). The assay is classed as biochemical. The following applies: upper bound stated in text lists; read-out: IC50 values in the Cbl-b inhibition assay of Biological Example 1. In short, it runs like this:
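Binding-based Cbl-b activity assay. Src-phosphorylated, N-terminally biotin-Avi-tagged Cbl-b recruits labelled UbcH5B-Ub, and proximity to streptavidin-terbium yields FRET.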

Assay [6] deals with T-cell. Description: IL-2 secretion from T-cells co-stimulated with anti-CD3 and anti-CD28 antibody (Biological Example 2). The assay is classed as cell-based, human. The following applies: for IL-2 secretion, Anti-CD3/Anti-CD28 stimulation, fold change over baseline: baseline = anti-CD3/anti-CD28 stimulated cells without inhibitor; for fold induction at 0.3 µM / fold induction at 1 µM / fold induction at 4 µM: Homo sapiens, T-cell, read-out: IL-2 secretion Anti-CD3/Anti-CD28 stimulation; for fold induction at 0.3 µM: 0.3 μM Cbl-b inhibitor; for fold induction at 1 µM: 1 μM Cbl-b inhibitor; for fold induction at 4 µM: 4 μM Cbl-b inhibitor. In short, it runs like this:
as §1

The mark [7] stands for this setting: assay buffer with 100 mM NaCl, 60 nM Src kinase, read-out: Cbl-b activity IC50.
The mark [8] stands for this setting: 0.3 μM compound, primary human total T-cells.
Setting [9] is: 1 μM compound, primary human total T-cells.
The mark [10] stands for this setting: 4 μM compound, primary human total T-cells.
The mark [11] stands for this setting: 8 μM compound, primary human total T-cells.
Setting [12] is: fold change over baseline (anti-CD3/anti-CD28 stimulated T-cells without inhibitor).
Where [13] appears, read: Homo sapiens, fold change over baseline (anti-CD3/anti-CD28 stimulated T-cells without inhibitor).
[14] abbreviates: * assay buffer containing 50 mM NaCl instead of 100 mM NaCl and 30 nM Src kinase instead of 60 nM, read-out: Cbl-b activity IC50 (μM)*.
Setting [15] is: fold change over baseline, primary human total T-cells.

T1 sequence (Q13191 36-427): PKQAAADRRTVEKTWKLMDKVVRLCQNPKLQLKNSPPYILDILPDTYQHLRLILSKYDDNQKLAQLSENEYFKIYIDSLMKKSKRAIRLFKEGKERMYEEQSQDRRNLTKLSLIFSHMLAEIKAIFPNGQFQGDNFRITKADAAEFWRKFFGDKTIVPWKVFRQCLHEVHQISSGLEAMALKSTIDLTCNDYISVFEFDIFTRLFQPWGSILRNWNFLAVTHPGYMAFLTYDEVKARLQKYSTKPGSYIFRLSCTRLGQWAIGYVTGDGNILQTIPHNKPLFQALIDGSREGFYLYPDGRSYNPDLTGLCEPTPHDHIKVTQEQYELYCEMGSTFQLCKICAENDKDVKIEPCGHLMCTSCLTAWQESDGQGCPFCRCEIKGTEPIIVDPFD

For `Cn1cnnc1[C@@H](F)[C@](C)(F)c1cccc(N2Cc3c(cccc3C(F)(F)F)C2=O)c1` (stereo in doubt) [Compound 480, 2-(3-((1R,2R)-1,2-difluoro-1-(4-methyl-4H-1,2,4-triazol-3-yl)propan-2-yl)phenyl)-4-(trifluoromethyl)isoindolin-1-one], the IC50 (as a rule, the concentration at which inhibition is half-maximal) at Cbl-b [1] (setting [7]) is 0.1 to 0.3 µM; on Cbl-b [5] it was at most 300 nM. In addition, the “CD25 staining, Anti-CD3/Anti-CD28 stimulation, fold change over baseline” value in the assay with T-cell [2] (setting [8]), in the assay on T-cell [2] (setting [9]) and with T-cell [2] (setting [10]) was “D (D indicates 1.01-1.30 fold)” throughout. In addition, the “IL-2 secretion, Anti-CD3 stimulation, fold change over baseline” value in the assay with T-cell [3] (setting [9]) is on record as “E (E indicates ≤0.050 fold)”; in the assay with T-cell [3] (setting [11]) it was “D (D indicates 0.051-0.1 fold)”. The entries for the “CD25 staining, Anti-CD3 stimulation, fold change over baseline” value in the assay on T-cell [4] (setting [9]) and with T-cell [4] (setting [11]) were “D (D indicates ≤0.600 fold)” and “C (C indicates 0.601<0.800 fold)”, respectively. For the same molecule, the “IL-2 secretion, Anti-CD3/Anti-CD28 stimulation, fold change over baseline” value with T-cell [6] (setting [8]), with T-cell [6] (setting [9]) and with T-cell [6] (setting [10]) was “D (D indicates 1.01-2.50 fold)” in each case.
In the case of `CC(c1cc(C(=O)Nc2cccc(C3(Cc4nncn4C)COC3)c2)nc(C2CC2)n1)N1CCC2(CC2)C1` (stereo in doubt) [Example 592a, (R)-6-(1-(5-azaspiro[2.4]heptan-5-yl)ethyl)-2-cyclopropyl-N-(3-(3-((4-methyl-4H-1,2,4-triazol-3-yl)methyl)oxetan-3-yl)phenyl)pyrimidine-4-carboxamide], the IC50 is below 0.1 µM at Cbl-b [1] (setting [7]) and at most 100 nM on Cbl-b [5]. Besides, the figures for the fold induction at 0.3 µM with T-cell [2] (setting [12]) and in the assay on T-cell [6] (setting [12]) were 1.01 to 1.3 and 5 to 7.5, respectively. Besides, the fold induction at 1 µM with T-cell [2] (setting [12]) is 1.01 to 1.3; with T-cell [3] (setting [13]), above 0.201; in the assay on T-cell [4] (setting [13]) it was above 1; in the assay on T-cell [6] (setting [12]) it was above 7.5.
`COc1cccc(C(=O)Nc2cccc([C@H](C)Sc3nncn3C)c2)n1` [Compound 38, (S)-6-Methoxy-N-(3-(1-((4-methyl-4H-1,2,4-triazol-3-yl)thio)ethyl)phenyl)picolinamide]: the IC50 on Cbl-b [1] (setting [14]) was 0.301 to 1 µM; on Cbl-b [1] (setting [7]), 0.301 to 1 µM; on Cbl-b [5] it was at most 1000 nM. The fold induction at 0.3 µM was below 1 in the assay with T-cell [2] (setting [15]) and 1.01 to 2.5 in the assay on T-cell [6] (setting [15]). Further, the fold induction at 1 µM in the assay with T-cell [2] (setting [15]) is below 1; in the assay on T-cell [3] (setting [15]), 0.101 to 0.15; in the assay on T-cell [4] (setting [15]), below 0.6; in the assay with T-cell [6] (setting [15]), 1.01 to 2.5. Moreover, the results for the fold induction at 4 µM with T-cell [2] (setting [15]) and in the assay with T-cell [6] (setting [15]) were 1.31 to 1.5 and 2.51 to 5, respectively. The fold induction at 8 µM with T-cell [3] (setting [15]) was in the range of 0.151 to 0.2; in the assay on T-cell [4] (setting [15]), 0.601 to 0.8.
As to `Cc1nc(C(=O)Nc2cccc([C@H](C)Sc3nncn3C)c2)ccc1Cl` [Compound 39, (S)-5-Chloro-6-methyl-N-(3-(1-((4-methyl-4H-1,2,4-triazol-3-yl)thio)ethyl)phenyl)picolinamide], the IC50 is 0.301 to 1 µM at Cbl-b [1] (setting [14]), 0.1 to 0.3 µM at Cbl-b [1] (setting [7]) and at most 500 nM on Cbl-b [5]. Also, the fold induction at 0.3 µM with T-cell [2] (setting [15]) was below 1; in the assay with T-cell [6] (setting [15]), 2.51 to 5. Further, the fold induction at 1 µM in the assay on T-cell [2] (setting [15]) is 1.01 to 1.3; with T-cell [3] (setting [15]), below 0.05; with T-cell [4] (setting [15]), below 0.6; in the assay with T-cell [6] (setting [15]) it was 5 to 7.5. The figures for the fold induction at 4 µM with T-cell [2] (setting [15]) and in the assay with T-cell [6] (setting [15]) were 1.01 to 1.3 and above 7.5, respectively. Also, the fold induction at 8 µM in the assay with T-cell [3] (setting [15]) was 0.051 to 0.1; in the assay on T-cell [4] (setting [15]), 0.801 to 1.
On to `C[C@H](Sc1nncn1C)c1cccc(NC(=O)c2cc(C3(O)COC3)cc(C(F)(F)F)n2)c1` [Compound 84, (S)-4-(3-hydroxyoxetan-3-yl)-N-(3-(1-((4-methyl-4H-1,2,4-triazol-3-yl)thio)ethyl)phenyl)-6-(trifluoromethyl)picolinamide], for which the IC50 at Cbl-b [1] (setting [7]) was 0.301 to 1 µM; on Cbl-b [5], at most 1000 nM. For the same molecule, the fold induction at 0.3 µM in the assay with T-cell [2] (setting [15]) and in the assay on T-cell [6] (setting [15]) was below 1 in each case. Moreover, the fold induction at 1 µM was 1.01 to 1.3 in the assay with T-cell [2] (setting [15]), below 0.05 with T-cell [3] (setting [15]), below 0.6 in the assay on T-cell [4] (setting [15]) and below 1 in the assay with T-cell [6] (setting [15]). Further, the fold induction at 4 µM was 1.01 to 1.3 in the assay on T-cell [2] (setting [15]) and below 1 in the assay on T-cell [6] (setting [15]). Moreover, the fold induction at 8 µM is below 0.05 in the assay with T-cell [3] (setting [15]) and 0.601 to 0.8 in the assay with T-cell [4] (setting [15]).
In the case of `COc1cc(C(=O)Nc2cccc([C@H](C)Cc3nncn3C)c2)nc(C(F)(F)F)c1` [Compound 192, (R)-4-methoxy-N-(3-(1-(4-methyl-4H-1,2,4-triazol-3-yl)propan-2-yl)phenyl)-6-(trifluoromethyl)picolinamide], the IC50 is 0.301 to 1 µM on Cbl-b [1] (setting [7]) and at most 1000 nM at Cbl-b [5]. Also, the fold induction at 0.3 µM in the assay with T-cell [2] (setting [15]) lay in the range of 1.01 to 1.3; in the assay on T-cell [6] (setting [15]), 1.01 to 2.5. The fold induction at 1 µM fell in the range of 1.01 to 1.3 in the assay with T-cell [2] (setting [15]), 0.101 to 0.15 in the assay with T-cell [3] (setting [15]), 0.801 to 1 with T-cell [4] (setting [15]) and 1.01 to 2.5 in the assay with T-cell [6] (setting [15]). Also, the fold induction at 4 µM in the assay on T-cell [2] (setting [15]) was 1.01 to 1.3; in the assay on T-cell [6] (setting [15]), 1.01 to 2.5. The fold induction at 8 µM with T-cell [3] (setting [15]) was in the range of 0.101 to 0.15; with T-cell [4] (setting [15]), 0.801 to 1.
Regarding `C[C@H](Cc1nncn1C)c1cccc(NC(=O)c2cc3cc(N4CCN(C)C(=O)C4)ccc3cn2)c1` [Compound 209, (R)-6-(4-methyl-3-oxopiperazin-1-yl)-N-(3-(1-(4-methyl-4H-1,2,4-triazol-3-yl)propan-2-yl)phenyl)isoquinoline-3-carboxamide 2,2,2-trifluoroacetate], the values for the IC50 on Cbl-b [1] (setting [7]) and on Cbl-b [5] were below 0.1 µM and at most 100 nM, respectively. For the same molecule, the fold induction at 0.3 µM in the assay on T-cell [2] (setting [15]) is 1.31 to 1.5; with T-cell [6] (setting [15]), 5 to 7.5. The fold induction at 1 µM in the assay with T-cell [2] (setting [15]) was 1.31 to 1.5; in the assay on T-cell [3] (setting [15]), above 0.201; in the assay on T-cell [4] (setting [15]) it was below 0.6; in the assay with T-cell [6] (setting [15]), 5 to 7.5. The values for the fold induction at 4 µM with T-cell [2] (setting [15]) and in the assay on T-cell [6] (setting [15]) were 1.51 to 1.75 and above 7.5, respectively. Moreover, the fold induction at 8 µM in the assay with T-cell [3] (setting [15]) was above 0.201; with T-cell [4] (setting [15]), above 1.
Take `Cc1ccc(C(=O)Nc2cccc(C(C)Cc3nccn3C)c2)nc1C1CC1` (stereo not shown) [Compound 214, 6-Cyclopropyl-5-methyl-N-(3-(1-(1-methyl-1H-imidazol-2-yl)propan-2-yl)phenyl)picolinamide]: the IC50 is 1 to 3 µM at Cbl-b [1] (setting [7]) and at most 10000 nM on Cbl-b [5]. For the same molecule, the fold induction at 0.3 µM with T-cell [2] (setting [15]) is below 1; with T-cell [6] (setting [15]) it was above 7.5. Besides, the fold induction at 1 µM was below 1 in the assay on T-cell [2] (setting [15]), 0.051 to 0.1 in the assay on T-cell [3] (setting [15]), below 0.6 in the assay with T-cell [4] (setting [15]) and above 7.5 in the assay on T-cell [6] (setting [15]). The fold induction at 4 µM with T-cell [2] (setting [15]) is 1.01 to 1.3; in the assay on T-cell [6] (setting [15]), above 7.5. The fold induction at 8 µM with T-cell [3] (setting [15]) is 0.051 to 0.1; with T-cell [4] (setting [15]), below 0.6.
